These are literature values, as cited in patent USRE41489E1 (priority 1997, dated 2010).

Structures are written as SMILES. Where two headings read alike, the source gives them in different places.

For data set [1] the following is noted: parenteral, on a weight basis.
The conditions of data set [2]: conscious postoperative patients.
In a further data set the target is δ receptors (Homo sapiens, UniProt P41143).
For data set [3] the following is noted: estimated.
Assay in data set [4]: not given
This is another data set of the same source.

For data set [5] the following is noted: rats.
Where [6] appears, read: intravenous single dose of about 0.3 mg.

δ receptors, sequence (P41143 whole entry): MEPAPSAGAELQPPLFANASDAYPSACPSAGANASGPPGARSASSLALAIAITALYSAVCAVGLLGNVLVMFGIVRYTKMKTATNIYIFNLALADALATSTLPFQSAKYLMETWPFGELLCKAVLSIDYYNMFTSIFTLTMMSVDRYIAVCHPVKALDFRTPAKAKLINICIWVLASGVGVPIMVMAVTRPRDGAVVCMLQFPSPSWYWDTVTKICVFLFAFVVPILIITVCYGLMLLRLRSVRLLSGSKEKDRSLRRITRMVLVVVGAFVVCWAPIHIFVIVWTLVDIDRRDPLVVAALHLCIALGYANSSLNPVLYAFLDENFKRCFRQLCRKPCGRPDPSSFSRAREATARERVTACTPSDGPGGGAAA

As to `CO[C@]12CC[C@@]3(C[C@@H]1[C@](C)(O)C(C)(C)C)[C@H]1Cc4ccc(O)c5c4[C@@]3(CCN1CC1CC1)[C@H]2O5` [buprenorphine, 21-cyclopropyl-7-[(S)-1-hydroxy-1,2,2-trimethylpropyl]-6,14-endo-ethano-6,7,8,14-tetrahydrooripavine], in data set [1], the “analgesic potency relative to meperidine” value is given as “about 600 times” and the “analgesic potency relative to pentazocine” value is on record as “about 200 times”. Further, for the setting “intramuscular second 0.3-mg dose 3 hours after the initial intravenous dose”, the “mean peak plasma buprenorphine concentration” value is “about 3.6 ng/ml”. Under “intramuscular second 0.3-mg dose, after about 3 hours”, the plasma concentration result was “about 0.4 ng/ml”. Moreover, for the setting “intravenous about 0.3 mg, after about 5 minutes”, the plasma concentration result is listed as “about 9 ng/ml”. For the same molecule, the plasma concentration result (intravenous about 0.3 mg, after about 3 hours) is recorded as “about 0.4 ng/ml”. Besides, under setting [6], the “mean peak plasma drug concentration” value was “about 18 ng/ml” and the “time of mean peak plasma concentration” value is no more than 2 min. Further, the total plasma clearance result in data set [2] is “approximately 1.28 l/minute”. Also, on δ receptors, the “binding affinity to δ receptors” value was “lower affinity”. For the same molecule, the oral bioavailability in data set [3] is given as 15%. In data set [4] (0.4 mg sublingual single dose), the Cmax (as a rule, the peak of the concentration-time curve) was 0.50 ± 0.06 ng/mL; the Tmax (as a rule, the time from dosing to the highest level) was 3.5 ± 0.667 h; the systemic availability is 57.7%. In addition, in data set [4] (0.8 mg sublingual single dose), the Cmax was 1.04 ± 0.27 ng/mL, the Tmax was 3.2 ± 0.817 h and the systemic availability is recorded as 54.1%. Also, the “time to highest concentrations in the liver” value in data set [5] (intramuscular administration) is no more than 40 min. Further, in data set [5] (oral administration), the “time to highest concentrations in the liver” value was no more than 10 min. In the data set on plasma proteins, the “bound to plasma proteins” value is on record as “approximately 96%”.
